assay: Human HepG2 cell viability assay in 384 well format; type: toxicity, cell-based; set-up: dose 125 nL, time 70.5 hour; concentration not given beside the values; conditions: HepG2 cells, read-out: Inhibition

SMILES	cytotoxicity at 70.5 h
COc1ccc2[nH]c(C[C@@H]3C[C@@H](C(C)C)[C@H](CN(C)C)C=C3C)nc2c1	-3.19%
CN1CCC(N[C@@H]2CO[C@H](CNC(=O)C3CCCC3)[C@H]2O)CC1	-3.54%
CC(=O)N1CCN2C(=O)N(Cc3ccc(F)cc3)C[C@H]2C1	-13%
O=C(c1ccno1)N1CCN2C(=O)N(Cc3ccc(F)cc3)C[C@H]2C1	-8.27%
O=C1N(Cc2ccccn2)C[C@H]2CN(C3CCC3)CCN12	2.38%
O=S(=O)(c1ccc(F)cc1)N1CCOC[C@H](Oc2cnccn2)C1	12.5%
CO[C@H]1COCCN(C(=O)c2ccno2)C1	-1.71%
CO[C@H]1COCCN(C(=O)c2cc(C)oc2C(F)(F)F)C1	-3.96%
CNC(=O)[C@@H](C1CCCCC1)N1CCC[C@H]1C(=O)NC1CC1	-20.1%
CCNC(=O)O[C@H]1COCCN(c2nc3ccccc3s2)C1	-2.95%
Cc1cccc(CNC[C@H]2Cn3cc(-c4ccccc4)nc3CO2)n1	-7.12%
CN1CCC(N2CCOC[C@H](OCC(=O)N(C)C)C2)CC1	0.483%
CC[C@H]1CN2CC[C@H]1C[C@@H]2CNCc1ccc2c(c1)OCO2	-5.69%
O=C(c1cc(CC2(NC3CCCCC3)COC2)no1)N1CCCCC1	11.7%
CC(C)CS(=O)(=O)Nc1ccc([C@H]2OCC(=O)N[C@@H]2CO)cc1	0.34%
O=C(NC[C@H]1OC[C@@H](NC(=O)C2CCCC2)[C@@H]1O)c1ccncc1	13.7%
CC(C)N1CCN2C(=O)N(C3CCCCC3)C[C@H]2C1	0.287%
COc1ccc(CNC[C@H]2Cn3ccnc3CO2)cn1	-2.5%
O=C(O)C[C@@H]1CCN(C(=O)c2cccs2)C[C@@H]1CCN1CCCCC1	-3.9%
COCCN1CCN(C(=O)C[C@@H]2C[C@@H](C(C)C)[C@H](CO)C=C2C)CC1	-3.05%
CC[C@H]1CN(C(=O)c2cccnc2)CC[C@H]1CC(=O)NCCOC	-1.87%
CC(C)(C)c1cn(C[C@H]2CC3CCN2C[C@@H]3C(=O)N2CCOCC2)nn1 (stereo partly drawn)	2.28%
COCc1cn(C[C@H]2CC3CCN2C[C@@H]3C(=O)Nc2ccccc2)nn1 (stereo partly drawn)	-6.64%
O=C(Nc1ccccc1)[C@H]1CN2CCC1C[C@@H]2Cn1cc(CO)nn1 (stereo partly drawn)	-9.02%
CC[C@H]1CN2CC[C@H]1C[C@@H]2CNC(=O)c1ccco1	-1.78%

SMILES	cytotoxicity at 70.5 h
CC[C@H]1CN2CC[C@H]1C[C@@H]2CNC(=O)Nc1cccc(C#N)c1	13.7%
CC[C@H]1CN2CC[C@H]1C[C@@H]2CNC(=O)NC1CCCCC1	4.29%
CC[C@H]1CN(C(=O)C2CC2)CC[C@H]1CC(=O)NCCN1CCOCC1	-0.373%
COCC(=O)N1CCN(C(C)=O)C[C@@H]1C(=O)OC	12.2%
O=C(NC[C@H]1C[C@@H]2CCN1C[C@@H]2CN1CCCCC1)Nc1ccsc1	-16%
O=C(NC[C@H]1C[C@@H]2CCN1C[C@@H]2CN1CCCCC1)c1ccco1	0.157%
COCC(=O)NC[C@H]1C[C@@H]2CCN1C[C@@H]2CN(C)c1ccccc1	0.807%
CC[C@H]1CN(C(=O)C(C)(C)C)CC[C@H]1CC(=O)O	7.7%
COc1ncccc1CN1CCc2[nH]nc(C(=O)N(C)C)c2C1	-11.3%
Cc1cccc(CN2CCCC23CCNC3)n1 (stereo not drawn)	24.8%
COCCN1C[C@H]2CCN(C(=O)c3cc(C)on3)CC[C@H]2S1(=O)=O	-5.47%
CN1CCN(Cc2cccnc2)C(=O)C12CCN(S(C)(=O)=O)CC2	-5.92%
C[C@@H]1C[C@H]2CN(S(=O)(=O)c3ccc(F)cc3)C[C@H]2O1	-4.41%
Cn1cccc1C(=O)N1C[C@H]2CN(Cc3cccnc3)C[C@H]2C1	-1.49%
COc1ccc(C[C@H]2CNCC[C@@H]2OCC2CC2)cc1	-8.25%
CN1C(=O)C2(CCN(C(=O)C3CCOCC3)CC2)c2ccccc21	-3.31%
O=C(CCc1ccccc1)N[C@H]1CC[C@@]2(CCC(=O)N2)CC1	-8.44%
COc1ccc(C[C@H]2CN(C(=O)c3cc(C)no3)CC[C@H]2OC)cc1	-5.12%
Cc1ccc(CN2CCC3(CCCN3C(=O)C(C)C)CC2)o1	5%
O=C(C1CCC1)N1C[C@@H]2CN(c3ccccc3)C(=O)[C@@H]2C1	11%
CO[C@H]1CCN(C(=O)c2cc(C)on2)C[C@@H]1Cc1ccccc1	5.73%
CN(C)CC(=O)N1CC2(CCN(S(=O)(=O)c3ccccc3)C2)C1	-6.71%
NCC1[C@H]2CN(Cc3cccc(Cl)c3)C[C@@H]12 (stereo partly drawn)	-5.77%
CCS(=O)(=O)N1CCC2(CC(=O)N(c3ccccc3C)C2)C1 (stereo not drawn)	21.9%
Cc1oncc1C(=O)N1CCC2(CC1)CN(S(C)(=O)=O)c1ccccc12	-3.56%

SMILES	cytotoxicity at 70.5 h
CNC(=O)[C@@H](c1ccccc1)N1CCC[C@H]1C(=O)NC1CCCCC1	-2.47%
CNC(=O)[C@@H](c1ccccc1)N1CCC[C@H]1C(=O)NCc1ccccn1	-6.43%
O[C@@H]1C[C@@](CNCc2cccc(Cl)c2)(COc2cccnc2)C[C@@H]1O	-2.94%
Cc1cccc(CN2C[C@@H](C)[C@@]3(CCN(CC(=O)N(C)C)C3=O)C2)c1	-10%
Cc1nn(C)c(C)c1S(=O)(=O)N1CC[C@@H]2O[C@@H](C)C[C@H]2C1	-11.2%
CCN1CC[C@@]2(C(=O)N3CCOCC3)CCN(C(=O)C(C)C)CC[C@@H]12	18.4%
Cn1cccc1C(=O)N1C[C@H]2CN(Cc3cccc(F)c3)C[C@H]2C1	-6.11%
CCN1C[C@@H]2[C@@H](OC)CCN(C(=O)Cc3ccsc3)[C@@H]2C1	-5.4%
Cc1ccc(CN2CCC3(CC2)C(=O)Nc2ccccc23)s1	-7.74%
CN1C(=O)CC(c2ccccc2)C12CCN(CC1CCOCC1)CC2 (stereo not drawn)	-6.6%
CN(C)C(=O)CC1CC2(CCN(CC3CC3)CC2)Oc2ccccc21 (stereo not drawn)	-3.69%
O=C1Nc2ccccc2C12CCN(c1nccs1)CC2	-3.17%
O=C1CC[C@]2(CC[C@@H](NC(=O)NCc3cccnc3)CC2)N1	-2.72%
Cc1ccc(CN2CC[C@H]3NC(=O)CC[C@@H]32)o1	-6.53%
COCCN1C[C@@H]2[C@@H](OC)CCN(C(=O)Cc3ccsc3)[C@@H]2C1	-8.01%
O=C(Cc1ccccc1)N1CCC2(CCN2Cc2ccc(F)cc2)C1 (stereo not drawn)	7.36%
COCCN1CCC2(CC1)CC(NC(=O)CC1CC1)c1ccccc1O2 (stereo not drawn)	-6.99%
O=C1N(Cc2cccc(F)c2)CCC12CCN(c1ccccn1)CC2	-8.45%
COCC(=O)NC1CC2(CCN(CC3CC3)CC2)Oc2ccccc21 (stereo not drawn)	18.1%
COCC(=O)N1CCC2(CCN(Cc3cccnc3)C2)CC1	-7.11%
COCCN1CCC2(CC1)CCN(Cc1ccccn1)CC2	-1.25%
O=C1CC[C@]2(CC[C@@H](NCc3cccnc3)CC2)N1Cc1ccccc1	-11.6%
O=C(c1n[nH]c2c1CN(C1CCOC1)CC2)N1CCOCC1 (stereo not drawn)	-2.91%
